Test results: US20260272908A1 (VANDERBILT UNIVERSITY, priority 2023, published 2026)
“Also recorded” adds a separate entry of the source.

Assays:
Meta3 organoids = assay: Meta3 metaplastic organoid growth and survival (organoid diameter, phase-contrast); type: cell-based, mouse; details: trametinib 1 μM, pyrvinium 100 nM, 3 days
Procedure: (§1) All experiments were repeated at least three times.
(§2) All experiments were performed at least in triplicate.

Meta4 organoids [1] = assay: Meta4 dysplastic organoid growth and cell death (organoid diameter, phase-contrast, H&E, live/dead staining); type: cell-based, mouse; details: pyrvinium 100 nM, SSTC3 0.2-1 μM, STAT3-IN-1 1 μM, Sttatic 2 μM, 3 days
Procedure: as §1, §2

Wnt-target genes = assay: Real-time PCR for Wnt-target genes in Meta4 organoids; type: cell-based, mouse; details: pyrvinium 100 nM
Procedure: Mean±SD. One-way ANOVA with Tukey's multiple comparisons.
(§3) Total RNAs were extracted from Meta3 or Meta4 organoids using the Trizol (Invitrogen) reagent. cDNAs were synthesized using iScript gDNA clear cDNA synthesis kit (Bio-Rad) and RT-PCR was performed using SsoAdvanced™ Universal SYBR Green supermix (Bio-Rad) and a CFX96 Real-Time PCR Detection System (Bio-Rad). GAPDH, a house keeping gene, was used to normalize gene expression levels. All reactions were performed in triplicate and relative gene expression levels were obtained by the comparative ΔΔCt method using CFX Maestro software (Bio-Rad).

[2] = test system: STAT pathway / STAT3^Y705 phosphorylation; assay: Phospho-antibody array in Meta3 and Meta4 organoids; type: cell-based, mouse; details: pyrvinium, 3 days
Excerpt: Shading scale represents standardized log 2(FDR) values. […] Each square represents the signal ratio of the antibody against the unphosphorylated form of the site. FIG. 2E schematically illustrates how the STAT3 and DPPs in RAS/MAPK pathway is affected by Pyr treatment in precancerous organoids.
The top 10 protein candidates were selected, including p-MYC^T358, p-PKCtheta^T538, p-C-Raf^S43 p-STAT3^Y705, p-Pyk2^T580, p-Histone H3.1^S10, p-CREB^T100, p-Pyk2^T881, p-SRF^S77, and p-ERK1/2(p44/42)^T202(FIG. 2C-2D). As the organoids were derived from Mist1-Kras mice, it is not surprising that many proteins on the list are directly related to MAPK and PKC signaling pathways, with the exception of STAT3 (FIG. 2E).

phospho-STAT3 (p-STAT3) = assay: Western blot for phospho-STAT3 in Meta3 and Meta4 organoids; type: cell-based, mouse
Procedure: (§4) FIG. 3C-3D show the Western blot analysis for p-STAT3 and p-ERK in Meta3 and Meta4 organoids (FIG. 3C) and ratios of p-STAT3/total STAT3 and p-ERK/total ERK (FIG. 3D). […] FIG. 3F-3G show phase-contrast images of Meta4 organoids treated with DMSO, Pyr (100 nM), STAT3-IN-1 (1 μM), Stattic (2 μM), and Cryptotanshinone (CPT) (5 μM) for 3 days (FIG. 3F), and quantitation of organoid diameters before and after treatment (FIG. 3G). FIG. 3H-3I show phase-contrast images of Meta4 organoids treated with DMSO, trametinib (Tra), STAT3-IN-1, combination of Tra and STAT3-IN-1, and Pyr, for 3 days (FIG. 3H), and quantitation of organoid diameters before and after treatment (FIG. 3I). FIG. 3J-3K show western blot for p-STAT3 and p-ERK after treatment of Tra, Pyr, and SSTC3 (FIG. 3J) and ratios of p-STAT3/t-STAT3 and p-ERK/t-ERK (FIG. 3K). […] Relative quantification of each gene expression level was normalized to GAPDH gene expression. Shading scale represents the mRNA expression values. FIG. 3M show representative mRNA of Pim-1 and Cyclin-B1 after treatment. Mean±standard deviation. […] Scale bar=500 μM.
(§5) Total proteins were extracted from organoids using radioimmunoprecipitation assay buffer (10 mmol/L Tris-HC, pH 7.2, 150 mmol/L NaCl, 5 mmol/L EDTA, 0.1% sodium dodecyl sulfate, 1.0% Triton X-100, 1% deoxycholate) with protease inhibitors. The protein concentration was measured The Bio-Rad Protein Assay (Bio-Rad Laboratories, Hercules, CA). 5 to 10 μg of total protein was loaded onto 12.5% or 10% sodium dodecyl sulfate/polyacrylamide gel electrophoresis (PAGE) and transferred onto polyvinylidene difluoride membranes (Millipore, Billerica, MA). […] After washes with TBS-T, chemiluminescence was detected with an Amersham Imager 680 instrument (GE Healthcare) after 1 mL of the SuperSignal West Femto Maximum Sensitivity Substrate (ThermoFisher) was applied to the membranes.

phospho-ERK (p-ERK) = assay: Western blot for phospho-ERK in Meta3 and Meta4 organoids; type: cell-based, mouse
Procedure: as §4, §5

STAT3-target genes = assay: Quantitative real time-PCR for STAT3 target genes in Meta4 organoids; type: cell-based, mouse; details: pyrvinium 100 nM
Procedure: as §4
Two-tailed Mann-Whitney test.

Meta4 organoids [3] = assay: FACS analysis of Meta4 organoids (7-AAD/annexin V; CD133/CD166); type: cell-based, mouse
CD133 and CD166 = assay: qRT-PCR of dysplastic stem cell markers in Meta4 organoids; type: cell-based, mouse; details: pyrvinium-treated vs DMSO
Procedure: FIG. 4D-4E show lusters of dysplastic stem cells (DSCs) differentiated cells or damaged cells in a superimposed UMAP plot (FIG. 4D) and their proportions in DMSO-treated and Pyr-treated Meta4 samples (FIG. 4E).
as §3

wild-type mice = assay: Histopathology of major organs in wild-type mice; type: in vivo, mouse; details: 4 mg/L in drinking water, 2 weeks
Procedure: Hematoxylin and eosin images were obtained from wild-type mice treated with either dimethyl sulfoxide (DMSO) or Pyr (4 mg/L in drinking water) for a duration of 2 weeks. Scale bar=100 μm.
One or two weeks after either DMSO or pyrvinium treatment, gastric mucosa in each group of mice was examined.

## Cc1cc(/C=C/c2ccc3cc(N(C)C)ccc3[n+]2C)c(C)n1-c1ccccc1 [pyrvinium]
Meta3 organoids
  organoid size compared to control organoids treated with DMSO: significant reduction in size
Meta4 organoids [1]
  organoid size / growth: reduction in organoid size
Wnt-target genes; 6 or 24 hours
  Wnt-target gene expression: not downregulated
Wnt-target genes; 24 hours after treatment
  expression of Axin2, Cdca4, Rnf43, and Znrf3: increased
[2]; Meta3 and Meta4
  most prominent effect on protein phosphorylation (phospho-array): dephosphorylation of proteins related to the STAT pathway
[2]
  STAT3^Y705 phosphorylation (phospho-array): loss
phospho-STAT3 (p-STAT3); Meta3
  phosphorylation of STAT3^Y705: reduced phosphorylation
phospho-STAT3 (p-STAT3); Meta4, 3 days
  phosphorylation of STAT3^Y705: significant reduction
phospho-ERK (p-ERK); Meta3
  phosphorylation of ERK: reduced phosphorylation
phospho-ERK (p-ERK); Meta4, 3 days
  p-ERK levels: significant decrease
STAT3-target genes
  expression of several STAT3-target genes, including Cyclin B1 and Pim-1: downregulated
Meta4 organoids [3]; pyrvinium-treated
  CD133^+CD166^+ DSCs (FACS): significant decrease
Meta4 organoids [3]; pyrvinium-treated cells
  7-AAD and Annexin V expression: increase
CD133 and CD166
  CD133 and CD166 gene expression: decreases
wild-type mice
  histopathology of major organs (stomach, esophagus, liver, kidney, heart, lung, spleen): did not induce any noticeable histopathological abnormalities; also recorded: unaffected
